Reference: US7407989B2, “Compounds useful for modulating abnormal cell proliferation” (The Hospital for Sick Children, priority 2004, dated 2008)

Experiments:
[1] = tested on: Philadelphia Positive Z119 Acute Lymphoblastic Leukemia Cells; test: Killing of Philadelphia positive Z119 acute lymphoblastic leukemia cells in culture (colony assay in methylcellulose); type: cell-based; details: colonies of more than 20 cells counted at 7-9 days, no exogenous growth factors, read-out: ALL (Z 119) IC50
Protocol: Z119 cells were plated in 1 ml volumes at a density of 5×10^4 cells/ml, in the absence of exogenous growth factors, into 35 mm petri dishes (Nunc, Gibco) containing IMDM (OCI, Toronto) plus 20% FCS (Cansera Rexdale, ON.) in 0.9% (vol/vol) methylcellulose (Fluka, Switzerland) with the indicated concentration of for various test compounds described above. Cultures were set at 37° C., 5% CO2 in a humidified atmosphere. Colonies consisting of more than 20 cells were counted at 7-9 days using an inverted microscope.

[2] = tested on: normal bone marrow cells (BFU-E colonies); test: Effect upon normal bone marrow differentiation in culture (CFU-GEMM assay, BFU-E colonies); type: cell-based; details: Bone marrow cell, 336 h, BFU-E colonies evaluated at 14 days, read-out: NBM (BFU-E) IC50
Protocol: The CFU-GEMM assay was performed according to Fauser and Messner (1978, Blood, 52(6) 143-8) and Messner and Fausser (1980, Blut, 41(5) 327-33) with some variations. In brief, heparinized bone marrow cells were layered over Percoll (1.077 gm/ml) (Pharmacia Fine Chemical, Piscataway N.J.) and centrifuged at 400 g at 4° C. for 10 minutes to remove neutrophils and RBCs. The fractionated BM cells at […] were cultured in IMDM (OCI, Toronto) containing 0.9% (vol/vol) methylcellulose supplemented with 30% FCS (Cansera Rexdale, ON.) or normal human plasma, a cocktail of cytokines containing G-CSF (10 ng/ml, Amgen), IL-3 (40 U/ml, Immunex), MGF (50 ng/ml, Immunex), Erythropoietin (2 u/ml, Epprex) or TPO (10 ng/ml, Amgen), 5×10^−5 M Bβ-2-mercaptoethanol and the specified concentration of CR4. The culture mixture was plated in 1 ml volumes into 35 mm petri dishes and incubated at 37° C., 5% CO2 in a humidified atmosphere. All cultures were evaluated at 14 days for the number of BFU-E colonies (defined as aggregates of more than 500 hemoglobinized cells or, 3 or more erythroid subcolonies), CFU-GM colonies (defined as granulocyte or monocyte-macrophage cells or both), CFU-Meg colonies (comprising 4 or more megakaryocytes) and CFU-GEMM colonies (a mixed population comprising of all elements).

With `O=C(/C=C/C=C/c1ccc(O)c(O)c1)NCc1ccccc1` [CRD-82, 5-(3,4-Dihydroxyphenyl)-penta-2E,4E-dienoic acid benzylamide] the IC50 [1] was 460 nM and the IC50 [2] was greater than 25000 nM.
`COc1cc(/C=C/C=C/C(=O)NCc2ccc(O)c(O)c2)cc(OC)c1O` [CRD-84, 5-(4-Hydroxy-3,5-dimethoxyphenyl)-penta-2E,4E-dienoic acid 3,4-dihydroxybenzylamide] showed an IC50 [1] greater than 1000 nM and an IC50 [2] greater than 10000 nM.
Compound `COc1cc(/C=C/C=C/C(=O)NCc2ccc(O)c(O)c2)ccc1O` [CRD-85, 5-(4-Hydroxy-3-methoxyphenyl)-penta-2E,4E-dienoic acid 3,4-dihydroxybenzylamide] has an IC50 [1] greater than 1000 nM and an IC50 [2] greater than 10000 nM.
Work on `COc1cc(/C=C/C=C/C(=O)NCc2ccccc2)ccc1O` [CRD-81, 5-(4-Hydroxy-3-methoxyphenyl)-penta-2E,4E-dienoic acid benzylamide] yielded an IC50 [1] greater than 1000 nM and an IC50 [2] greater than 10000 nM.
